Data: paper PMC2680961, “Homologous desensitization of signalling by the alpha (α) isoform of the human thromboxane A2 receptor: A specific role for nitric oxide signalling” (Biochimica et Biophysica Acta, 2007)
Residue numbers refer to the chain shown, from its start.

What was measured:
[1] = target: T1, TPα^T337A (Homo sapiens, UniProt P21731, T337A); experiment: Intracellular calcium mobilization, HEK.TPα^T337A cells; assay type: cell-based; conditions: for Δ[Ca2+]i, U46619-induced: HEK.TPα^T337A
T1 construct: expressed in transfected cells
T1 sequence (P21731 1-343 T337A): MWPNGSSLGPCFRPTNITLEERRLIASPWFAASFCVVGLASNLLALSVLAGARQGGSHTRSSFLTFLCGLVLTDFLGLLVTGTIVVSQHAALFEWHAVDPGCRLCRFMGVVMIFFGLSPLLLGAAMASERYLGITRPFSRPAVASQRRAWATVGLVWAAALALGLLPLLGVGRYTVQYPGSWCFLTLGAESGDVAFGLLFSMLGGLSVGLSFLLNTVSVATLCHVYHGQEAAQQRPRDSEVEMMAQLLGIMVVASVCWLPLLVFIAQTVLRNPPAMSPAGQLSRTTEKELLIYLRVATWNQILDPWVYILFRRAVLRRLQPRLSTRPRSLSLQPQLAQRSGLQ
Procedure: (§1) Measurement of intracellular calcium mobilization ([Ca^2+]i) in FURA2/AM preloaded HEK 293 cell lines (2 × 10^6 cells/dish), each transiently co-transfected with pADVA (10 μg), and pCMV:Gαq (25 μg), was carried out as previously described. To investigate the effect of GRK2/βARK1 on TP-mediated [Ca^2+]i mobilization, HEK.TPα or HEK.TPβ cells (2 × 10^6 cells/dish) were co-transfected with pADVA (10 μg), pCMV:Gαq (25 μg) along with pRK5:βARK1^495–689 (25 μg), encoding a dominant negative form of GRK2/βARK1[39]. Approximately 48 h post-transfection, cells were harvested by scraping, washed twice in ice-cold PBS and resuspended in HBSSHB (modified Ca^2+/Mg^2+-free Hank's buffered salt solution, containing 10 μM HEPES, pH 7.67, 0.1% bovine serum albumin (BSA)) buffer at 10^7 cells/ml and incubated in the dark with 5 μM FURA2/AM for 45 min at 37 °C. […] For each measurement of [Ca^2+]i mobilization, aliquots of cells were diluted to 0.825 × 10^6 cells/ml in HBSSHB, 1 mM CaCl2 and FURA2 fluorescence was recorded (2 ml aliquots of cells) at 37^ °C with gentle stirring with a Perkin Elmer-Cetus LS50-B spectrofluorometer at excitation wavelengths of 340 nm and 380 nm and emission wavelength of 510 nm, respectively.
Cells were stimulated with the TP agonist U46619 (1 μM) and changes in [Ca^2+]i mobilization were monitored as a function of time. To assess agonist-mediated homologous desensitization, cells (0.825 × 10^6 cells/ml; 2 ml per assay) were stimulated with 1 μM U46619 (Primary stimulation) or, as a control, with the vehicle for 4 min; thereafter, cells were collected by centrifugation (900×g, 5 min); were washed twice in 2 ml HBSSHB, 1 mM CaCl2; and finally resuspended in 2 ml HBSSHB,1 mM CaCl2 and were left to recover over various time intervals (ranging from 0 to 60 min); thereafter, cells re-stimulated with 1 μM U46619 (Secondary stimulation) and changes in [Ca^2+]i mobilization were monitored as a function of time. […]

[2] = target: T2, TPα^S340A (Homo sapiens, UniProt P21731, S340A); experiment: Intracellular calcium mobilization, HEK.TPα^S340A cells; assay type: cell-based
T2 construct: expressed in transfected cells
T2 sequence (P21731 1-343 S340A): T1 sequence (P21731 1-343 T337A) with A337T, S340A
Procedure: as §1, with “GRK2/βARK1[39].” for “GRK2/βARK1[39]. Approximately 48 h post-transfection, cells were harvested by scraping, washed twice in ice-cold PBS and resuspended in HBSSHB (modified Ca^2+/Mg^2+-free Hank's buffered salt solution, containing 10 μM HEPES, pH 7.67, 0.1% bovine serum albumin (BSA)) buffer at 10^7 cells/ml and incubated in the dark with 5 μM FURA2/AM for 45 min at 37 °C.”
Cells were stimulated with the TP agonist U46619 (1 μM) and changes in [Ca^2+]i mobilization were monitored as a function of time. […]
The vehicle had no effect on U46619-mediated [Ca^2+]i mobilization. Calibration of the signal was performed in each sample by adding 0.2% Triton X-100 to obtain the maximal fluorescence ratio (Rmax) and then 1 mM EGTA to obtain the minimal fluorescence ratio (Rmin). […]

[3] = secondary 1 μM U46619 at 15 min

In the case of `CCCCC[C@H](O)/C=C/[C@@H]1[C@@H](C/C=C\CCCC(=O)O)[C@H]2CO[C@@H]1C2` [U46619], the “Δ[Ca2+]i, U46619-induced” value ([1]; primary 1 μM U46619 4 min) is reported as 200 ± 9.2 nM, the “Δ[Ca2+]i, U46619-induced” value [1, 3] is reported as 49 ± 5 nM and the “secondary U46619 [Ca2+]i response relative to primary response” value ([1]; TPα^T337A) is reported as 25%. The “Δ[Ca2+]i, U46619-induced” value ([2]; primary 1 μM U46619 4 min) was 180 ± 6.1 nM and the “Δ[Ca2+]i, U46619-induced” value [2, 3] was 0 nM.
